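These data come from cells grown in 96-well plates and exposed to compound for 48 hours at five concentrations. GI50 is the concentration that inhibits growth by half.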 The source made the active and inactive calls. Cut-off read from the data, not from the text of the source: active = GI50 up to about 1.1 µM and inactive = higher.
Key:
Assay in all cases: NCI-60 cell line screen, 48 h
[1] = system: HOP-62
[2] = system: OVCAR-3
[3] = system: SW-620
[4] = system: NCI-H522
[5] = system: UACC-62
[6] = system: MDA-MB-231
[7] = system: CAKI-1
[8] = system: HOP-92
[9] = system: OVCAR-8
[10] = system: SK-MEL-2
[11] = system: HL-60
[12] = system: T47D
[13] = system: DU-145
[14] = system: A498
[15] = system: SF-268
[16] = system: M14
[17] = system: HT-29
[18] = system: IGROV-1
[19] = system: K562
[20] = system: PC-3

Measured: GI50

C=C(C)C(=O)CC[C@@H](C)[C@H]1[C@@H](OC2OC(CO)C(O)C(O)C2O)C[C@@]2(C)[C@@H]3C[C@H](O)C4C(C)(C)[C@@H](OC5OC(CO)C(O)C(O)C5O)CC[C@@]45C[C@@]35CC[C@]12C (stereo not given in full)
inactive: [1] > 100 µM | [2] > 100 µM | [3] > 100 µM | [4] 80.4 µM | [5] > 100 µM | [6] > 100 µM | [7] 66.4 µM | [8] > 100 µM | [9] > 100 µM | [10] > 100 µM | [11] 19.7 µM | [12] > 100 µM | [13] > 100 µM | [14] > 100 µM | [15] > 100 µM | [16] > 100 µM | [17] > 100 µM | [18] > 100 µM | [19] 90.6 µM | [20] > 100 µM

O=NN(CCCl)C(=O)NCCCl [CARMUSTINE]
inactive: [1] 97.3 µM | [2] 83.6 µM | [3] 52.2 µM | [4] 42.9 µM | [5] 23.8 µM | [6] 91 µM | [7] 71.9 µM | [8] 65.2 µM | [9] 77.8 µM | [10] 91 µM | [11] 16.7 µM | [12] 110 µM | [13] 169 µM | [14] 102 µM | [15] 38.6 µM | [16] 78.7 µM | [17] 79.3 µM | [18] 70.6 µM | [19] 45.8 µM | [20] 97.7 µM

CNc1nc(OC)c2c(n1)n(C)c[n+]2C [HETEROMINE B]
inactive: [1] > 100 µM | [2] 62.7 µM | [3] > 100 µM | [4] 31.7 µM | [5] > 100 µM | [6] > 100 µM | [7] > 100 µM | [8] 41.2 µM | [9] > 100 µM | [10] 53.3 µM | [11] > 100 µM | [12] > 100 µM | [13] > 100 µM | [14] > 100 µM | [15] > 100 µM | [16] > 100 µM | [17] > 100 µM | [18] > 100 µM | [19] > 100 µM | [20] > 100 µM
